Measurements reported in paper PMC4490394 (Scientific Reports, 2015).
Positions count from the first letter of the chain named.

Tests used:
[1] = test system: VCaP cells; assay: VCaP proliferation assay (WST-1); format: cell-based; details: Homo sapiens, 96 h, 0.1 nM mibolerone, steroid-depleted medium, 4 days, WST-1, read-out: IC50, androgen-induced VCaP cell proliferation
Method: VCaP cells were treated with a submaximal concentration of mibolerone (0.1 nM) and increasing concentrations of test compounds in steroid-free assay medium supplemented with 4 mM GlutaMAX. After a 4-day incubation with the compounds, cell viability was measured using a WST-1 cell proliferation assay (Roche), according to manufacturer’s instructions.

[2] = test system: DU-145 prostate cancer cells; assay: Viability of AR-negative cells (WST-1); format: cell-based, human; details: increasing concentrations, 4 days
[3] = test system: subcutaneous VCaP tumors; assay: Castration-resistant VCaP xenograft, tumor volume; format: in vivo, castrated nude mice; details: 37 days
[4] = test system: serum testosterone; assay: Serum testosterone in intact nude mice bearing orthotopic VCaP tumors; format: in vivo; details: 50 mg/kg bid oral, 3 weeks
Method: (§1) One million VCaP cells in 20 μL of RPMI-1640 medium were orthotopically injected into the dorsal prostate lobes of athymic nude male mice (7 weeks old from Harlan Winkelman, France). Tumor growth was followed by measuring serum PSA (ProStatus™ PSA EQM Kits, Wallac, Finland). […] At autopsy, blood samples were collected by heart puncture, clotted overnight at +4 °C, and centrifuged. For serum testosterone determination, 25-μL aliquots were extracted twice with 2 mL of diethyl ether and evaporated under nitrogen to dryness. The residues were reconstituted in PBS and measured using a standard radioimmunoassay as described previously.

[5] = test system: orthotopic VCaP tumors; assay: Orthotopic VCaP xenograft, tumor growth; format: in vivo, nude mice; details: 50 mg/kg bid oral, 3 weeks, vs control group
Method: as §1

[6] = Quantitative whole-body autoradiography (QWBA); format: in vivo; details: rat, compound and its metabolites, data not shown
[7] = target: T1, AR(F876L) (Homo sapiens, UniProt P10275, F877L)
T1 sequence (P10275 1-920 F877L): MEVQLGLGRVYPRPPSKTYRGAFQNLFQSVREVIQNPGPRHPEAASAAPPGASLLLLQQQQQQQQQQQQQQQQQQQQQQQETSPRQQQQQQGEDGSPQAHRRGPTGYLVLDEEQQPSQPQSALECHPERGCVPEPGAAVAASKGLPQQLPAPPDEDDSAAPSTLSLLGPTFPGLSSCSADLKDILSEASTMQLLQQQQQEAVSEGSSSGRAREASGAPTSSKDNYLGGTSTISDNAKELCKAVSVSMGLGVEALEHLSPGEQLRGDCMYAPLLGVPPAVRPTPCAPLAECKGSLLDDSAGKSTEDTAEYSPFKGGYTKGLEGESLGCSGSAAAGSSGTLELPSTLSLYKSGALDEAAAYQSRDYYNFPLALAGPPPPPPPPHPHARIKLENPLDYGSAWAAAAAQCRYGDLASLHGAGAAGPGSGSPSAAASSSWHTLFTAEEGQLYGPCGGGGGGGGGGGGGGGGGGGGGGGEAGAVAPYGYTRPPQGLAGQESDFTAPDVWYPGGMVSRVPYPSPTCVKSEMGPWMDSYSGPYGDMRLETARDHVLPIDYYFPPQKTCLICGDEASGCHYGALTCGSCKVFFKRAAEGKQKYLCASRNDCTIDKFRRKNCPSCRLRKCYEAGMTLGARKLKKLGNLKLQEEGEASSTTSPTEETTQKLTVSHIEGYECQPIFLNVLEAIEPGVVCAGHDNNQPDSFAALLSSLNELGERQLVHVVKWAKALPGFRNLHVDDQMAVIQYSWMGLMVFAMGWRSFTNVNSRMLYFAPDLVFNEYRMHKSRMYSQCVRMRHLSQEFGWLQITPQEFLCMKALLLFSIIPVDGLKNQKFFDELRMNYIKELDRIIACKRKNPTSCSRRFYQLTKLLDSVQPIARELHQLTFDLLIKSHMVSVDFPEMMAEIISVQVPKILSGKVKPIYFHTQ
Method: (§2) For one well in a 96-well plate, 190 ng of reporter construct DNA and 10 ng of receptor construct DNA were diluted in Opti-MEM® (Gibco). […] Luciferase activity was measured as described above.

[8] = target: T2, AR(T877A) (Homo sapiens, UniProt P10275, T878A)
T2 sequence (P10275 1-920 T878A): T1 sequence (P10275 1-920 F877L) with L877F, T878A
Method: as §2

[9] = test system: AR nuclear translocation in HS-HEK293 cells
Method: AR overexpressing HS-HEK293 cells immunolabeled with an AR-antibody were imaged either with a high-content screening (HCS) reader (Cellomics ArrayScan HCS VTI reader, Thermo) or with a confocal microscope (LSM780, Zeiss). HS-HEK293 cells in steroid-free assay medium were plated on poly-D-lysine coated microplates (BD) (HCS reader) or on coverslips (confocal imaging). After a 48-hour incubation, the cells were treated with 0.3 (HCS reader) or 1 μM (confocal imaging) of test compounds together with 0.3 nM testosterone for 5 hours. […] Cells were washed, DNA was labeled with DAPI (Sigma, 1 μg//mL), and images were analyzed with a NucTrans. V3 assay algorithm (Thermo). […] Coverslips were mounted with Vectashield containing DAPI (Vector Laboratories).

[10] = test system: testosterone; details: ODM-201-treated patients ref 28; cited from earlier work

SMILES: CC(O)c1cc(C(=O)N[C@@H](C)Cn2ccc(-c3ccc(C#N)c(Cl)c3)n2)[nH]n1 (some centres unmarked) [ODM-201]
- IC50 [1]: 230 nM
- effect on viability of DU-145 cells [2]: no effect
- antitumor activity (tumor volume) ([3]; 50 mg/kg oral once daily, vs castrated untreated mice): significant antitumor activity
- antitumor activity (tumor volume) ([3]; 50 mg/kg oral twice daily, p < 0.001 vs castrated untreated mice, p = 0.0245 vs enzalutamide): significant antitumor activity
- effect on serum testosterone levels [4]: did not affect
- orthotopic VCaP tumor growth [5]: inhibited tumor growth significantly
- access into the brain (QWBA) [6]: very low access
- functional activity (agonist/antagonist) on AR(F876L) [7]: full antagonists
- functional activity (agonist/antagonist) on AR(T877A) [8]: full antagonists
- effect on testosterone-induced nuclear translocation of AR [9]: inhibit
- serum testosterone levels in treated patients [10]: maintained at castrate levels
